What was measured:
[1] = excess molar enthalpy (molar enthalpy of mixing); xn = mol fraction of the nth substance listed; conditions: 308.15 K, 101 kPa, Liquid, Power-compensation calorimetry
[2] = xn = mol fraction of the nth substance listed; conditions: 101 kPa, Liquid; for speed of sound: Pulse-echo method; for mass density: Vibrating tube method

Cc1ccccc1Cl [2-chlorotoluene] + C1COCO1
[1]
Conditions	excess molar enthalpy [kcal/mol]
x1 = 0.0945	0.0361
x1 = 0.1378	0.05043
x1 = 0.1987	0.066
x1 = 0.2396	0.07481
x1 = 0.2914	0.0841
x1 = 0.3467	0.0899
x1 = 0.3962	0.0937
x1 = 0.4532	0.0956
x1 = 0.4991	0.0939
x1 = 0.5432	0.0915
x1 = 0.5899	0.088
x1 = 0.6329	0.08198
x1 = 0.6923	0.07337
x1 = 0.7321	0.065
x1 = 0.8021	0.05043
x1 = 0.8492	0.0392
x1 = 0.8912	0.0292
x1 = 0.9319	0.0186

[2]
Conditions	mass density, 298.15 K [kg/m3]	mass density, 303.15 K [kg/m3]	mass density, 308.15 K [kg/m3]	speed of sound, 298.15 K [m/s]	speed of sound, 303.15 K [m/s]	speed of sound, 308.15 K [m/s]
x1 = 0.0902	1061.1	1054.9	1048.7	1326.8	1304.4	1281.7
x1 = 0.1536	1062.6	1056.4	1050.4	1320	1297.8	1275.2
x1 = 0.2167	1064	1057.9	1052	1314.3	1292.5	1270.4
x1 = 0.2734	1065.2	1059.3	1053.4	1310.1	1288.8	1267
x1 = 0.3169	1066.1	1060.2	1054.4	1307.4	1286.4	1265.1
x1 = 0.3843	1067.5	1061.7	1055.9	1303.8	1283.5	1262.7
x1 = 0.4301	1068.4	1062.7	1057	1301.9	1281.9	1261.4
x1 = 0.4831	1069.4	1063.7	1058.1	1300.1	1280.3	1260.3
x1 = 0.5278	1070.2	1064.6	1059	1298.9	1279.3	1259.6
x1 = 0.5834	1071.2	1065.7	1060.2	1297.8	1278.4	1258.7
x1 = 0.6265	1071.9	1066.5	1061	1297.3	1277.9	1258.3
x1 = 0.6793	1072.7	1067.4	1062	1296.8	1277.4	1258
x1 = 0.7315	1073.6	1068.3	1063	1296.6	1277.3	1257.8
x1 = 0.7829	1074.4	1069.1	1063.9	1296.7	1277.4	1257.9
x1 = 0.8242	1075	1069.8	1064.7	1296.9	1277.6	1258.1
x1 = 0.8565	1075.4	1070.3	1065.2	1297.1	1277.8	1258.5
x1 = 0.9013	1076	1071	1066	1297.5	1278.5	1259.3
x1 = 0.9325	1076.5	1071.5	1066.5	1297.8	1279	1260.1
x1 = 1	1077.3	1072.5	1067.6	1298.7	1280.7	1262.7
